The target of this assay is T1, human MDM2 (GST-hMDM2 1-188), interaction with biotinylated-p53 (1-83) (Homo sapiens, UniProt Q00987).
T1 construct: Amino acid residues 1-188 of human MDM2 were expressed; made in house; host or cells: Escherichia coli
T1 sequence (Q00987 1-188): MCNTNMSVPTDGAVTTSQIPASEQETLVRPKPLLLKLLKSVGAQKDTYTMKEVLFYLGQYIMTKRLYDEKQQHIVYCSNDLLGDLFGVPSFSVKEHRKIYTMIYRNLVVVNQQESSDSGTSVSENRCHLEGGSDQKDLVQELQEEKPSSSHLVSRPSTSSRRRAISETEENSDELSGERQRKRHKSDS
The assay is described as follows: improved HTRF assay (HTRF2 assay), inhibition of HDM2-p53 interaction. It is filed as binding. To be noted: 0.2 nM GST-hMDM2, 0.5 nM biotinylated-p53, 100 mM KF. The procedure, abridged: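 GST-hMDM2 preincubated 20 min at RT with serially diluted compound, then biotinylated p53 (1-83, E. coli) added for 60 min. Detection with SA-XLent, anti-GST cryptate and KF, equilibrated >4 h; final DMSO 2%. TR-FRET read; % inhibition calculated relative to nutlin-3.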
On the technique in general: Time-resolved FRET reads energy transfer from a long-lived donor to a nearby acceptor.
For orientation: IC50 means the concentration at which inhibition is half-maximal. Read a high IC50 as lower potency. The molecule “2-((2R,5R,6R)-6-(3-chlorophenyl)-5-(4-chlorophenyl)-4-((S)-1-(N-(2-fluorophenyl)cyclopropanesulfonamido)-3-methylbutan-2-yl)-3-oxomorpholin-2-yl)acetic acid or 2-((2S,5R,6R)-6-(3-chlorophenyl)-5-(4-chlorophenyl)-4-((S)-1-(N-(2-fluorophenyl)cyclopropane sulfonamido)-3-methylbutan-2-yl)-3-oxomorpholin-2-yl)acetic acid [Example 196]” registered an IC50 of 1 nM. Molecule `CC[C@@H](CS(=O)(=O)C(C)(C)C)N1C(=O)[C@H](Cc2nnn[nH]2)O[C@H](c2cccc(Cl)c2)[C@H]1c1ccc(Cl)cc1` [Example 383, (2S,5R,6R)-2-((1H-Tetrazol-5-yl)methyl)-4-((S)-1-(tert-butylsulfonyl)butan-2-yl)-6-(3-chlorophenyl)-5-(4-chlorophenyl)morpholin-3-one] showed an IC50 below 1 nM. To `CN(C(C)(C)C)S(=O)(=O)C[C@H](C1CC1)N1C(=O)[C@@H](CC(=O)O)O[C@H](c2cccc(Cl)c2)[C@H]1c1ccc(Cl)cc1` (single isomer, unassigned) [Example 301, 2-((2R,5R,6R)-4-((S)-2-(N-(tert-Butyl)-N-methylsulfamoyl)-1-cyclopropylethyl)-6-(3-chlorophenyl)-5-(4-chlorophenyl)-3-oxomorpholin-2-yl)acetic acid or 2-((2S,5R,6R)-4-((S)-2-(N-(tert-butyl)-N-methylsulfamoyl)-1-cyclopropylethyl)-6-(3-chlorophenyl)-5-(4-chlorophenyl)-3-oxomorpholin-2-yl)acetic acid] belongs below 1 nM; to `O=C(O)C[C@H]1O[C@H](c2cccc(Cl)c2)[C@@H](c2ccc(Cl)cc2)N([C@H](CS(=O)(=O)c2ccncc2)C2CC2)C1=O` (single isomer, unassigned) [Example 286, 2-((2R,5R,6R)-6-(3-Chlorophenyl)-5-(4-chlorophenyl)-4-((S)-1-cyclopropyl-2-(pyridin-4-ylsulfonyl)ethyl)-3-oxomorpholin-2-yl)acetic acid or 2-((2S,5R,6R)-6-(3-chlorophenyl)-5-(4-chlorophenyl)-4-((S)-1-cyclopropyl-2-(pyridin-4-ylsulfonyl)ethyl)-3-oxomorpholin-2-yl)acetic acid], 2 nM. Consider `CC(C)(C)S(=O)(=O)C[C@H](C1CC1)N1C(=O)[C@@](C)(CC(=O)O)O[C@H](c2cccc(Cl)c2)[C@H]1c1ccc(Cl)c(F)c1` (single isomer, unassigned) [Example 412, 2-((2R,5R,6R)-4-((S)-2-(tert-Butylsulfonyl)-1-cyclopropylethyl)-5-(4-chloro-3-fluorophenyl)-6-(3-chlorophenyl)-2-methyl-3-oxomorpholin-2-yl)acetic acid or 2-((2S,5R,6R)-4-((S)-2-(tert-butylsulfonyl)-1-cyclopropylethyl)-5-(4-chloro-3-fluorophenyl)-6-(3-chlorophenyl)-2-methyl-3-oxomorpholin-2-yl)acetic acid], for which the IC50 is 11 nM. `CC[C@@H](CS(=O)(=O)C(C)(C)C)N1C(=O)[C@@H](CC(=O)O)O[C@H](c2cc(F)cc(Cl)c2)[C@H]1c1ccc(Cl)c(F)c1` (single isomer, unassigned) [Example 426, 2-((2R,5R,6R)-4-((S)-1-(tert-Butylsulfonyl)butan-2-yl)-5-(4-chloro-3-fluorophenyl)-6-(3-chloro-5-fluorophenyl)-3-oxomorpholin-2-yl)acetic acid or 2-((2S,5R,6R)-4-((S)-1-(tert-butylsulfonyl)butan-2-yl)-5-(4-chloro-3-fluorophenyl)-6-(3-chloro-5-fluorophenyl)-3-oxomorpholin-2-yl)acetic acid] had an IC50 of 1 nM. Next, `CC[C@@H](CS(=O)(=O)N1CCC[C@@H]1C)N1C(=O)[C@@H](CC(=O)O)O[C@H](c2cccc(Cl)c2)[C@H]1c1ccc(Cl)cc1` (single isomer, unassigned) [Example 208, 2-((2R,5R,6R)-6-(3-chlorophenyl)-5-(4-chlorophenyl)-4-((S)-1-(((S)-2-methylpyrrolidin-1-yl)sulfonyl)butan-2-yl)-3-oxomorpholin-2-yl)acetic acid or 2-((2S,5R,6R)-6-(3-chlorophenyl)-5-(4-chlorophenyl)-4-((S)-1-(((S)-2-methylpyrrolidin-1-yl)sulfonyl)butan-2-yl)-3-oxomorpholin-2-yl)acetic acid]: 2 nM; `CC(C)(C)NS(=O)(=O)C[C@H](C1CC1)N1C(=O)[C@@H](CC(=O)O)O[C@H](c2cccc(Cl)c2)[C@H]1c1ccc(Cl)cc1` (single isomer, unassigned) [Example 293, 2-((2R,5R,6R)-4-((S)-2-(N-(tert-Butyl)sulfamoyl)-1-cyclopropylethyl)-6-(3-chlorophenyl)-5-(4-chlorophenyl)-3-oxomorpholin-2-yl)acetic acid or 2-((2S,5R,6R)-4-((S)-2-(N-(tert-butyl)sulfamoyl)-1-cyclopropylethyl)-6-(3-chlorophenyl)-5-(4-chlorophenyl)-3-oxomorpholin-2-yl)acetic acid]: 1 nM. To `CC[C@@H](CN(c1ccccc1F)S(=O)(=O)C1CC1)N1C(=O)[C@@H](CC(=O)O)O[C@H](c2cccc(Cl)c2)[C@H]1c1ccc(Cl)s1` (single isomer, unassigned) [Example 217, 2-((2R,5S,6R)-6-(3-chlorophenyl)-5-(5-chlorothiophen-2-yl)-4-((S)-1-(N-(2-fluorophenyl)cyclopropanesulfonamido)butan-2-yl)-3-oxomorpholin-2-yl)acetic acid or 2-((2S,5S,6R)-6-(3-chlorophenyl)-5-(5-chlorothiophen-2-yl)-4-((S)-1-(N-(2-fluorophenyl)cyclopropanesulfonamido)butan-2-yl)-3-oxomorpholin-2-yl)acetic acid] belongs below 1 nM; to `CC[C@@H](CS(=O)(=O)C(C)C)N1C(=O)[C@H](CC(=O)O)O[C@H](c2cc(F)cc(Cl)c2)[C@H]1c1ccc(Cl)cc1` (single isomer, unassigned) [Example 125, 2-((2S,5R,6R)-6-(3-Chloro-5-fluorophenyl)-5-(4-chlorophenyl)-4-((S)-1-(isopropylsulfonyl)butan-2-yl)-3-oxomorpholin-2-yl)acetic acid or 2-((2R,5R,6R)-6-(3-Chloro-5-fluorophenyl)-5-(4-chlorophenyl)-4-((S)-1-(isopropylsulfonyl)butan-2-yl)-3-oxomorpholin-2-yl)acetic acid], 11 nM; to `CCC[C@@H](CS(=O)(=O)C(C)(C)C)N1C(=O)[C@@H](CC(=O)O)O[C@H](c2cccc(Cl)c2)[C@H]1c1ccc(Cl)cc1` (single isomer, unassigned) [Example 194, 2-((2R,5R,6R)-4-((S)-1-(tert-butylsulfonyl)pentan-2-yl)-6-(3-chlorophenyl)-5-(4-chlorophenyl)-3-oxomorpholin-2-yl)acetic acid or 2-((2S,5R,6R)-4-((S)-1-(tert-butylsulfonyl)pentan-2-yl)-6-(3-chlorophenyl)-5-(4-chlorophenyl)-3-oxomorpholin-2-yl)acetic acid], 3 nM.

In the case of `C[C@@H](CS(=O)(=O)C(C)(C)C)N1C(=O)[C@@H](CC(=O)NO)O[C@H](c2cccc(Cl)c2)[C@H]1c1ccc(Cl)cc1` (single isomer, unassigned) [Example 230, 2-((2R,5R,6R)-4-((S)-1-(tert-butylsulfonyl)propan-2-yl)-6-(3-chlorophenyl)-5-(4-chlorophenyl)-3-oxomorpholin-2-yl)-N-hydroxyacetamide or 2-((2S,5R,6R)-4-((S)-1-(tert-butylsulfonyl)propan-2-yl)-6-(3-chlorophenyl)-5-(4-chlorophenyl)-3-oxomorpholin-2-yl)-N-hydroxyacetamide], the IC50 was found to be 7 nM. Next, `CC[C@@H](CS(=O)(=O)C(C)(C)C)N1C(=O)[C@@H](Cc2nnnn2C)O[C@H](c2cccc(Cl)c2)[C@H]1c1ccc(Cl)cc1` (single isomer, unassigned) [Example 400, (2R,5R,6R)-4-((S)-1-(tert-Butylsulfonyl)butan-2-yl)-6-(3-chlorophenyl)-5-(4-chlorophenyl)-2-((1-methyl-1H-tetrazol-5-yl)methyl)morpholin-3-one or (2R,5R,6R)-4-((S)-1-(tert-butylsulfonyl)butan-2-yl)-6-(3-chlorophenyl)-5-(4-chlorophenyl)-2-((2-methyl-2H-tetrazol-5-yl)methyl)morpholin-3-one]: 37 nM. `CC[C@@H](CS(=O)(=O)C(C)(C)C)N1C(=O)[C@H](CCO)O[C@H](c2cccc(Cl)c2)[C@H]1c1ccc(Cl)cc1` [Example 151, (2S,5R,6R)-4-((S)-1-(tert-butylsulfonyl)butan-2-yl)-6-(3-chlorophenyl)-5-(4-chlorophenyl)-2-(2-hydroxyethyl)morpholin-3-one] yielded an IC50 of 22 nM. Molecule `C[C@@H](CS(=O)(=O)C(C)(C)C)N1C(=O)[C@H](CC(=O)N(C)C)O[C@H](c2cccc(Cl)c2)[C@H]1c1ccc(Cl)cc1` (single isomer, unassigned) [Example 231, 2-((2S,5R,6R)-4-((S)-1-(tert-butylsulfonyl)propan-2-yl)-6-(3-chlorophenyl)-5-(4-chlorophenyl)-3-oxomorpholin-2-yl)-N,N-dimethylacetamide or 2-((2R,5R,6R)-4-((S)-1-(tert-butylsulfonyl)propan-2-yl)-6-(3-chlorophenyl)-5-(4-chlorophenyl)-3-oxomorpholin-2-yl)-N,N-dimethylacetamide] yielded an IC50 of 16 nM.

(Values after patent US9376425B2, “Heterocyclic compounds as MDM2 inhibitors for the treatment of cancer” (AMGEN INC., priority 2011, dated 2016).)
